Data taken from patent US4193913A, “Thermoplastic vinyl chloride polymers containing monoalkyl-tin-stabilizers” (priority 1978, dated 1980).

Experiments:
[1] = tested on: rats; experiment: Acute oral LD50 in rats; format: in vivo, rat; conditions: for acute oral LD50: rats of both sexes, oral intubation
Description: Compound III was weighed into an Erlenmeyer flask. It was diluted at 30 and 50% with carboxymethylcellulose and administered by oral intubation.
The compound was tested on 40 rats (20 males/20 females). They were 6 to 7 weeks old and weighed 160 to 180 g.
The males and females were segregated and housed in Macrolon cages in groups of 5 in a room kept at a constant temperature of 22 ±1° C. and a relative humidity of approximately 50%. They received water and food ad libitum. The rats were starved during one night before starting the treatment. The doses were 3170, 4640, 6000 and 10,000 mg/kg body weight.

[2] = tested on: rats; experiment: No effect level, 90-day dietary administration to rats with 28-day recovery; format: in vivo, rat; conditions: for no effect level (dietary concentration): diet
Description: Compound III was administered in the diet to groups of 30 (groups 2 and 3) and 40 (group 4) rats at concentrations of 300, 1000 and 3000 ppm respectively (equivalent to an average daily intake of 19, 62 and 179 mg/kg body weight), for not less than 90 days. Forty rats in the control group received the same diet but without the addition of Compound III.
Ten rats (5+5) from each of groups 1 (control) and 4 (3000 ppm) were retained without treatment for 28 days after the end of the main study, as a recovery experiment.

[3] = Milling test, impact-modified suspension PVC (Example 15); conditions: 190° C.
Description: Experiment 1: A dry blend, consisting of 100 parts by weight of suspension PVC (K-value 58), 1.0 part by weight of wax ester and 0.2 part by weight of montan wax as the lubricant, 1.0 part by weight of acrylic resin as a processing aid, 12.0 parts by weight of MBS modifying resin, as an additive to improve impact strength, and 0.8 part by weight of methyl-tin tris-(myristyl-thioglycollate), corresponding to 0.09 part of tin, is milled on a laboratory mill at 190° C. Every 5 minutes, an 0.3 mm thick piece of film is removed to assess the discolouration.
Experiment 2: The above experiment is repeated with 1.1 parts by weight of the same stabiliser, corresponding to 0.13 part of tin. The very slight yellow discolouration in this case occurs after 20 minutes, and the light yellow discolouration after 25 minutes.

[4] = Heat stability test on laboratory mill (Example 11); conditions: 190° C., 1.0 part stabiliser per 100 parts suspension PVC, 0.5 part montan wax, 1.0 part monoglycerol ester
Description: (§1) A dry blend, consisting of 100 parts of suspension PVC, 0.5 part of montan wax, 1.0 part of monoglycerol ester and 1.0 part of organo-tin stabiliser according to the table below, is milled on a laboratory mill at 190° C. Every 5 minutes, an 0.3 mm thick piece of film is taken off to asist the discolouration.

[5] = Heat stability, bulk-polymerised PVC at 0.15 g Sn/100 g PVC (Example 12); conditions: 0.3 part montan wax, 0.15 g of Sn/100 g of PVC
Description: as §1
Moulding materials consisting of 100 parts of bulk-polymerised PVC and 0.3 part of montan wax together with the organo-tin stabilisers according to the table which follows are examined for their heat stability, analogously to Example 11. The amounts of stabiliser are calculated to correspond to the use of 0.15 g of Sn/100 g of PVC.

[6] = Milling test, vinyl chloride/vinyl acetate copolymer (Example 13); conditions: 20 minutes at 180° C., 1.35 g stabiliser, 0.13 g of tin per 100 parts of copolymer
From the text: 100 parts of a vinyl chloride/vinyl acetate copolymer (vinyl acetate content 10%, K-value 60 to 61) are premixed with 0.5 part of montan wax, 1.0 part of monoglycerol ester and an organo-tin stabiliser of the formula C8 H17 Sn(SCH2 COO-n-C16 H33)3. The amount of organo-tin stabiliser (1.35 g) is so chosen that 0.13 g of tin are present per 100 parts of copolymer.

[7] = Milling test, plasticised suspension PVC (Example 14); conditions: 180° C., 0.5 part by weight stabiliser
Description: A mixture of 100 parts by weight of suspension PVC (K-value 71), 40 parts by weight of di-2-ethylhexyl phthalate, 0.3 part by weight of montan wax and 0.5 part by weight of octyl-tin tris-cetyl-thioglycollate, corresponding to 0.05 g of Sn/100 g of PVC, is milled on a laboratory mill at 180° C. until yellowing beings to occur.

[8] = tin content of 49%; known stabiliser; cited from earlier work
[9] = 300, 1000 and 3000 ppm in diet, not less than 90 days
[10] = 0.8 part by weight stabiliser, 0.09 part of tin (Experiment 1)
[11] = 1.1 parts by weight stabiliser, 0.13 part of tin (Experiment 2)

What does the source list for CCCCCCC[CH2][Sn]([CH2]CCCCCCC)([S]CC(=O)OCCCCCC(C)C)[S]CC(=O)OCCCCCC(C)C [Compound I, (n-C8 H17)2 Sn(SCH2 COO-i-C8 H17)2, reference compound]?
acute oral LD50 ([1]; 14 days): 2000 mg/kg; no effect level (dietary concentration) ([2]; rats, not less than 90 days): 25 ppm

With CCCCCCC[CH2][Sn]([S]CC(=O)OCCCCCC(C)C)([S]CC(=O)OCCCCCC(C)C)[S]CC(=O)OCCCCCC(C)C [Compound II, n-C8 H17 Sn(SCH2 COO-i-C8 H17)3, reference compound] as the molecule, how does the “acute oral LD50” value ([1]; 14 days) read?
Its value is 5000 mg/kg.

What about the “no effect level (dietary concentration)” value ([2]; rats, not less than 90 days) of the same molecule?
The value was 500 ppm.

With CCCCCCCCCCCCCCOC(=O)C[S][Sn]([CH2]CCCCCCC)([S]CC(=O)OCCCCCCCCCCCCCC)[S]CC(=O)OCCCCCCCCCCCCCC [Compound III, n-C8 H17 Sn(SCH2 COO-n-C14 H29)3] as the molecule, how does the “mortality, acute test” value ([1]; 3170, 4640, 6000 and 10,000 mg/kg body weight, 14 days) read?
Its value is “No animal died”.

What about the “autopsy findings, acute test” value ([1]; killed animals, 3170 to 10,000 mg/kg) of the same molecule?
Its value is “no substance related gross organ changes were seen”.

What about the acute toxicity grading ([1]; rat, oral) of the same molecule?
Its acute toxicity grading is “slight acute toxicity”.

What about the “acute oral LD50” value ([1]; 14 days) of the same molecule?
Its value is “greater than 10,000 mg/kg”.

What about the “clinical symptoms, 90-day diet study” value [2, 9] of the same molecule?
Its value is “no clinical symptoms were recorded”.

What about the “deaths, 90-day diet study” value [2, 9] of the same molecule?
The value was “No deaths occured”.

What about the “body weight gains, food consumption, laboratory parameters, organ weight data after recovery” value ([2]; group 4 (3000 ppm) versus control, 28 days recovery) of the same molecule?
The value was “no significant difference”.

What about the “histopathological changes after recovery” value ([2]; group 4 (3000 ppm), 28 days recovery) of the same molecule?
Its value is “No histopathological changes were seen”.

And the body weight gain ([2]; male rats, 3000 ppm, following day 14, versus untreated controls)?
Its body weight gain is “gained less body weight than untreated controls”.

And the “body weights at termination of treatment” value ([2]; male rats, 3000 ppm, versus untreated control animals)?
The value was “slightly below those from untreated control animals”.

What about the “no effect level (dietary concentration)” value ([2]; rats, not less than 90 days) of the same molecule?
The value was 3000 ppm.

What about the “no effect level as average daily intake” value ([2]; rats, equivalent to 3000 ppm in diet, 129600 min) of the same molecule?
Its value is 179 mg/kg body weight.

And the feed consumption ([2]; top dose rats (3000 ppm))?
The feed consumption was “decreased feed consumption”.

For CCCCCCCCCCCCCCOC(=O)C[S][Sn]([CH3])([S]CC(=O)OCCCCCCCCCCCCCC)[S]CC(=O)OCCCCCCCCCCCCCC [Example 1, methyl-tin tris-(myristyl-thioglycollate)], which “milling time to reach a light yellow discolouration” value [3, 10] is on record?
The value was 20 min.

And the “milling time to reach a very slight yellow discolouration” value [3, 10]?
The value was 15 min.

What about the “milling time to light yellow discolouration” value [3, 11] of the same molecule?
The value was 25 min.

What about the “milling time to very slight yellow discolouration” value [3, 11] of the same molecule?
The value was 20 min.

What about the “Heat stability of the moulding material (time to recognisable colour change to light brown-yellow)” value [4] of the same molecule?
Its value is 25 min.

Which “Time in minutes for which the films remain colourless” value [5] does the source give for CCCCCCCCCCCCOC(=O)C[S][Sn]([CH2]CCC)([S]CC(=O)OCCCCCCCCCCCC)[S]CC(=O)OCCCCCCCCCCCC [Example 2, butyl-tin tris-(lauryl-thioglycollate)] here?
The value was 25 min.

Which “Time in minutes for which the films remain colourless” value [5] does the source give for CCCCCCCCCCCCCCCCOC(=O)C[S][Sn]([CH2]CCC)([S]CC(=O)OCCCCCCCCCCCCCCCC)[S]CC(=O)OCCCCCCCCCCCCCCCC [Example 3, butyl-tin tris-(cetyl-thioglycollate)] here?
The value was 35 min.

With CCC[CH2][Sn]([S]CC(=O)OCCCCCCCCCCCCCCCC(C)C)([S]CC(=O)OCCCCCCCCCCCCCCCC(C)C)[S]CC(=O)OCCCCCCCCCCCCCCCC(C)C [Example 8, butyl-tin tris-(i-octadecyl thioglycollate)] as the molecule, how does the “Time in minutes for which the films remain colourless” value [5] read?
The value was 30 min.

With CCCCCCCCCCCCCCCCOC(=O)C[S][Sn]([CH2]CCCCCCC)([S]CC(=O)OCCCCCCCCCCCCCCCC)[S]CC(=O)OCCCCCCCCCCCCCCCC [Example 10, octyl-tin tris-(cetyl-thioglycollate)] as the molecule, how does the “Heat stability of the moulding material (time to recognisable colour change to light brown-yellow)” value [4] read?
Its value is 25 min.

What about the “yellowing detectable after milling” value [6] of the same molecule?
Its value is “only very slight yellowing is detectable”.

And the “time until a very slight yellowing is just detectable” value ([7]; 0.05 g of Sn/100 g of PVC, 40 parts di-2-ethylhexyl phthalate)?
Its value is 74 min.

And the “appearance of the mill hide after 105 minutes” value ([7]; 105 minutes)?
Its value is “slightly yellow”.

For “butyl-tin tris(alfyl(12)-thioglycollate) [Example 4]”, which “Time in minutes for which the films remain colourless” value [5] is on record?
The value was 30 min.

With “butyl:tin tris(alfyl(14)-thioglycollate) [Example 5]” as the molecule, how does the “Heat stability of the moulding material (time to recognisable colour change to light brown-yellow)” value [4] read?
The value was 25 min.

With butylthiostannonic acid as the molecule, how does the “stabiliser effect relative to tin content” value [8] read?
The value was “relatively slight effect”.

With “octyl-tin tris(alfyl(14)-thioglycollate) [Example 9]” as the molecule, how does the “Time in minutes for which the films remain colourless” value [5] read?
Its value is 35 min.
